This is an account of results in patent US20230017532A1 (Hoffmann-La Roche Inc., priority 2018, published 2023).

Structures can show the parent of a compound that is named as a salt.

The first assay has as its system Acinetobacter baumannii ATCC17978. In words: Antimicrobial susceptibility testing: 90% growth inhibitory concentration (IC90) determination, Iso-Sensitest broth, OD 600 nm. The assay is classed as cell-based. To be noted: 90% growth inhibitory concentration, Acinetobacter baumannii ATCC17978, Iso-Sensitest broth, OD 600 nm over 16 h; read-out: ATCC 17978 IC90. The gist of the method:
(§1)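 Growth of bacteria (~5×10^5 CFU/ml, Iso-Sensitest medium, 35±2 °C) was followed by OD at 600 nm at 20-min intervals over 16 h against a 10-point twofold compound series (e.g. 50–0.097 μM final). Concentration giving 90% inhibition in log phase was reported.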
One may read the IC90 as the point of the concentration-response curve where the effect stands at 90%. As for `CCc1cc(Nc2nccn3c(-c4ccc(OCC#N)c(F)c4F)cnc23)ccc1C(=O)NCCOCCN` [Example 20, N-[2-(2-aminoethoxy)ethyl]-4-[[3-[4-(cyanomethoxy)-2,3-difluoro-phenyl]imidazo[1,2-a]pyrazin-8-yl]amino]-2-ethyl-benzamide;2,2,2-trifluoroacetic acid], the concentration for an effect of 90% (IC90) was 0.064 µM. With `CCc1cc(Nc2nccn3c(-c4ccc(OCC#N)c(F)c4F)cnc23)ccc1C(=O)NCCOCCN` [Example 85, N-[2-(2-aminoethoxy)ethyl]-4-[[3-[4-(cyano-methoxy)-2,3-difluorophenyl]imidazo[1,2-a]pyrazin-8-yl]amino]-2-ethyl-benzamide;2,2,2-trifluoroacetic acid], the 90% effect concentration (IC90) was found to be 0.055 µM. Still for that read-out and setting: the figure for `COc1ccc(-c2cnc3c(Nc4ccc(C(=O)NCCOCCN5CCNCC5)c(C)c4)nccn23)cc1` [Example 44, 4-[[3-(4-methoxyphenyl)imidazo[1,2-a]pyrazin-8-yl]amino]-2-methyl-N-[2-(2-piperazin-1-ylethoxy)ethyl]benzamide;dihydrochloride] is 0.46 µM; for `CCc1cc(Nc2nccn3c(-c4ccc(OC)c(F)c4F)cnc23)ccc1C(=O)NCCNCCN` [Example 64, N-(2-((2-Aminoethyl)amino)ethyl)-4-((3-(2,3-difluoro-4-methoxyphenyl)imidazo[1,2-a]pyrazin-8-yl)amino)-2-ethylbenzamide] it is 0.11 µM.

The assay is the same for the next values; noted with them: Acinetobacter baumannii, ATCC17978, 16 h, 90% growth inhibitory concentration, Acinetobacter baumannii ATCC17978, Iso-Sensitest broth, OD 600 nm over 16 h; read-out: ATCC 17978 IC90.
In the case of `CCc1cc(Nc2nccn3c(-c4ccc(OC)c(F)c4F)cnc23)ccc1C(=O)NCCCNCC(=O)O` [Example 49, (3-(4-((3-(2,3-difluoro-4-methoxyphenyl)imidazo[1,2-a]pyrazin-8-yl)amino)-2-ethylbenzamido)propyl)glycine compound trifluoroacetate], the IC90 amounted to 0.38 µM.

On to `Cc1cc(Nc2nccn3c(-c4ccc(OC(F)F)c(F)c4)cnc23)ccc1C(=O)NCCOCCN` [Example 97, N-[2-(2-aminoethoxy)ethyl]-4-[[3-[4-(difluoro-methoxy)-3-fluorophenyl]imidazo[1,2-a]pyrazin-8-yl]amino]-2-methylbenzamide; hydrochloride], for which the IC90 came to 0.37 µM. As to `COc1ccc(-c2cnc3c(Nc4ccc(C(=O)NCCOCCN5CCOCC5)c(C)c4)nccn23)cc1` [Example 106, 4-[[3-(4-methoxyphenyl)imidazo[1,2-a]pyrazin-8-yl]amino]-2-methyl-N-[2-(2-morpholin-4-ylethoxy)ethyl] benzamide], the concentration for an effect of 90% (IC90) was 0.48 µM. In the case of `COc1ccc(-c2cnc3c(Nc4ccc(C(=O)NCCOCCN)cc4)nccn23)cc1` [Example 15, N-(2-(2-aminoethoxy)ethyl)-4-((3-(4-methoxyphenyl)imidazo[1,2-a]pyrazin-8-yl)amino)benzamide hydrochloride], the IC90 came to 3.8 µM. The same measure, in the same setting: the figure for `Cc1cc(Nc2nccn3c(-c4ccc(OC(F)F)cc4)cnc23)ccc1C(=O)NCCOCCN(C)C` [Example 96, 4-[[3-[4-(difluoromethoxy)phenyl]imidazo [1,2-a]pyrazin-8-yl]amino]-N-[2-[2-(dimethylamino)ethoxy]ethyl]-2-methyl-benzamide] is 0.31 µM; for `Cc1cc(Nc2nccn3c(-c4ccc(OC(F)F)cc4)cnc23)ccc1C(=O)NCCOCCN1C(=O)COC1=O` [Example 12, 4-((3-(4-(difluoromethoxy)phenyl)imidazo[1,2-a]pyrazin-8-yl)amino)-N-(2-(2-(2,4-dioxooxazolidin-3-yl)ethoxy)ethyl)-2-methylbenzamide] it is 0.75 µM. For `CCN(C(=O)NCCCN(C)C)C(=O)c1ccc(Nc2nccn3c(-c4ccc(OCC#N)c(F)c4F)cnc23)cc1Cl` [Example 27, 2-chloro-4-[[3-[4-(cyanomethoxy)-2,3-difluoro-phenyl]imidazo[1,2-a]pyrazin-8-yl]amino]-N-[3-(dimethylamino)propylcarbamoyl]-N-ethyl-benzamide], the IC90 was 0.56 µM. Turning to `COc1ccc(-c2cnc3c(Nc4ccc(C(=O)NCCOCC(=O)N5CCN(C)CC5)c(C)c4)nccn23)cc1` [Example 115], the IC90 is 0.59 µM. With `Cc1cc(Nc2nccn3c(-c4ccc(OC(F)F)cc4)cnc23)ccc1C(=O)NCCOCCNC(=O)CCC(=O)O` [Example 78, 4-[2-[2-[[4-[[3-[4-(difluoromethoxy)phenyl]imidazo [1,2-a]pyrazin-8-yl]amino]-2-methylbenzoyl]amino]ethoxy]ethylamino]-4-oxobutanoic acid], the IC90 turned out to be 1.2 µM.

The same assay, now with this note: Acinetobacter baumannii, ATCC17978, 16 h, read-out: ATCC 17978 IC90.
Turning to `Cc1cc(Nc2nccn3c(-c4ccc(Cl)c(F)c4)cnc23)ccc1C(=O)NCCOCCN` [Example 32, N-(2-(2-aminoethoxy)ethyl)-4-((3-(4-chloro-3-fluorophenyl)imidazo[1,2-a]pyrazin-8-yl)amino)-2-methylbenzamide hydrochloride], the IC90 is 0.3 µM.

A further assay deals with Acinetobacter baumannii ATCC17961. Described as above. In kind it is cell-based. To be noted: 90% growth inhibitory concentration, Acinetobacter baumannii ATCC17961, Iso-Sensitest broth, OD 600 nm over 16 h; read-out: ATCC 17961 IC90. The gist of the method: as §1
With `CCc1cc(Nc2nccn3c(-c4ccc(OC)c(F)c4F)cnc23)ccc1C(=O)NCCNCC(=O)N1CCN[C@H](CO)C1` [Example 178, 4-[[3-(2,3-difluoro-4-methoxyphenyl)imidazo[1,2-a]pyrazin-8-yl]amino]-2-ethyl-N-[2-[[2-[(3S)-3-(hydroxymethyl)piperazin-1-yl]-2-oxoethyl]amino]ethyl]benzamide], the IC90 came out at 0.16 µM.

Regarding `CCc1cc(Nc2nccn3c(-c4ccc(OC)c(F)c4F)cnc23)ccc1C(=O)NCCNCCNCC(=O)O` [Example 216, (2-((2-(4-((3-(2,3-difluoro-4-methoxyphenyl)imidazo[1,2-a]pyrazin-8-yl)amino)-2-ethyl-benzamido)ethyl)amino)ethyl) glycine], the IC90 was found to be 0.49 µM.

As for `CCc1cc(Nc2nccn3c(-c4ccc(OC)cc4C(F)F)cnc23)ccc1C(=O)NCCOCCN` [Example 229, N-[2-(2-amino-ethoxy)ethyl]-4-[[3-[2-(difluoro-methyl)-4-methoxy-phenyl]imidazo [1,2-a]pyrazin-8-yl]amino]-2-ethyl-benzamide], the 90% effect concentration (IC90) was 0.04 µM. On the same count and under the same terms, the value for `COc1ccc(-c2cnc3c(Nc4cc(C)c(C(=O)NCCOCCN(C)C)c(F)c4)nccn23)c(F)c1F` [Example 190, 4-[[3-(2,3-difluoro-4-methoxyphenyl)imidazo[1,2-a]pyrazin-8-yl]amino]-N-[2-[2-(dimethylamino)ethoxy]ethyl]-2-fluoro-6-methylbenzamide] was 0.056 µM; that for `COc1ccc(-c2cnc3c(Nc4cc(C)c(C(=O)NCCOCCN)c(F)c4)nccn23)c(F)c1F` [Example 191, N-[2-(2-amino-ethoxy]-4-[[3-(2,3-difluoro-4-methoxyphenyl)imidazo[1,2-a]pyrazin-8-yl]amino]-2-fluoro-6-methyl-benzamide; hydrochloride] was 0.087 µM. For the molecule `CCc1cc(Nc2nccn3c(-c4cccc(F)c4F)cnc23)ccc1C(=O)NCCOCCN` [Example 209, N-[2-(2-amino-ethoxy)ethyl]-4-[[3-(2,3-difluoro-phenyl)imidazo [1,2-a]pyrazin-8-yl]amino]-2-ethyl-benzamide], the IC90 worked out at 0.33 µM.

Still in this assay, the particulars now being: Acinetobacter baumannii, ATCC17961, 16 h, read-out: ATCC 17961 IC90.
With `CCc1cc(Nc2nccn3c(-c4ccc(OC)cc4C(F)(F)F)cnc23)ccc1C(=O)NCCOCCN` [Example 56, N-(2-(2-aminoethoxy)ethyl)-2-ethyl-4-((3-(4-methoxy-2-(trifluoromethyl)phenyl)imidazo[1,2-a]pyrazin-8-yl)amino)benzamide hydrochloride], the IC90 was found to be 0.08 µM.
